The results in this text go back to PubChem BioAssay (NCI).

Values joined by “and” are separate entries in the source; they are usually repeats but may differ in a detail not shown here. Equal entries are not always repeated.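 Step 1: Grow cells in 96-well plates. Step 2: Expose to compound for 48 hours at 5 concentrations. Step 3: Interpolate endpoints linearly; if unreached, use highest concentration. The concentration for 50% growth inhibition is given as GI50. The concentration for full growth arrest is given as TGI.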

Common to all, as to experiment: growth of human tumour cells (NCI), 48 h
Assay [1] deals with ACHN renal.
Assay [2] has as its system BT-549 breast.
For assay [3], the system named is HL-60(TB) leukemia.
Assay [4] relates to K-562 leukemia.
In assay [5] the test system is PC-3 prostate.
The test system of assay [6] is SF-295 CNS.
Assay [7] deals with SF-539 CNS.
The subject of assay [8] is SNB-19 CNS.
Assay [9] concerns TK-10 renal.
Assay [10] has as its system HOP-92 NSCLC.

As for `COc1cc(C(=O)N/N=C/c2cccc([N+](=O)[O-])c2)cc(OC)c1OC`, the GI50 was 26.7 µM in assay [1]; 4.95 µM in assay [2]; 0.762 µM in [3]; 0.872 µM in [4]; 2.92 µM in assay [5]; 2.75 µM in assay [6]. In addition, the results for the GI50 in assay [7], in [8] and in assay [9] were 3.28 µM, 55.1 µM and 25.2 µM, respectively. Also, the TGI in assay [1] was above 100 µM; in assay [2] it was 86.6 µM; in assay [3], 10.2 µM; in assay [4] it was above 100 µM; in [5] it was above 100 µM; in assay [6], 29.2 µM. The results for the TGI in assay [7], in [8] and in assay [9] were 16.9 µM, above 100 µM and above 100 µM, respectively.
As to `CC(C)n1nc(C#Cc2cccc(NC(=O)c3cccc(C(F)(F)F)c3)c2)c2c(N)ncnc21`, the GI50 was 1.01 µM in [1]; 2.46 µM in [2]; 0.156 µM in assay [3]; 2.91 µM in assay [5]; 2.88 µM in assay [6]; 0.445 µM in assay [7]. Further, the GI50 was 4.21 µM in assay [8] and 1.78 µM in assay [9]. Further, the TGI in assay [1] is 5.72 µM; in assay [2], 47.7 µM; in [3], above 100 µM; in [4], above 100 µM; in [5], above 100 µM; in assay [6], above 100 µM. In addition, the TGI is 2.33 µM in assay [7], above 100 µM in assay [8] and 4.45 µM in assay [9].
For `C#Cc1ccc(-n2c(/C=C/c3cc(OC)c(OC)c(OC)c3)nc3ncccc3c2=O)cc1`, the GI50 is 6.63 µM in assay [1]; 2.99 µM in assay [2]; 3.84 µM in assay [3]; 2.31 µM in assay [10]; 3.83 µM in [4]; 3.96 µM in [5]. Besides, the GI50 in assay [7] is 4.57 µM; in assay [8], 16.2 µM; in assay [9], 17.3 µM. Besides, the TGI is above 100 µM in [1]; 9.95 µM in [2]; 25.6 µM in assay [3]; 7.72 µM in assay [10]; above 100 µM in assay [4]; above 100 µM in assay [5]. In addition, the TGI in assay [7] is 37.7 µM; in assay [8] it was above 100 µM; in assay [9], 62.9 µM.
Regarding `O=c1[nH]c2cc(O)ccc2n2cc3c(F)cccc3c12`, the GI50 in [1] is 2.04 µM; in assay [2], above 100 µM; in assay [3] it was 6.55 µM; in assay [10], 3.41 µM; in [4], 0.547 µM; in [5], 4.54 µM. For the same compound, the GI50 in [6] is 2.85 µM; in [7], 1.3 µM; in assay [8], 3.33 µM; in [9], above 100 µM. The TGI in [1], in assay [2], in assay [3], in assay [10], in [4] and in [5] was above 100 µM each time. Also, the TGI in assay [6], in assay [7], in [8] and in [9] was above 100 µM in each case.
Consider `O=C(Nc1ccccc1)Nc1ccccc1CNc1nc(Nc2ccc(OCCN3CCCC3)cc2)ncc1Cl`, for which the GI50 is 1.85 µM in [1]; 5.05 µM in assay [2]; 1.06 µM in assay [3]; 2.82 µM in assay [10]; 1.67 µM in assay [4]; 6.06 µM in [5]. The GI50 is 7.24 µM in [6], 1.72 µM in assay [7], 5.53 µM in assay [8] and 4.36 µM in [9]. The TGI is 6.83 µM in assay [1]; 11.4 µM in assay [2]; 2.5 µM in assay [3]; 10.6 µM in [10]; above 50 µM in assay [4]; 14 µM in [5]. The TGI in [6] was found to be 14 µM; in assay [7], 6.23 µM; in assay [8], 12.5 µM; in [9], 15 µM.
For `CCOC(=O)C1=C(c2ccccc2)N(Cc2ccccc2)C2(O)C=CC(=O)C3C(=O)N(c4ccccc4)C(=O)C132` (configuration not stated), the GI50 was 1.9 µM in assay [1]; 1.76 µM in assay [2]; 1.8 µM in assay [3]; 2.03 µM in assay [10]; 2.2 µM in [4]; 2.67 µM in assay [5]. The GI50 in [6] was 2.9 µM; in [7], 1.91 µM; in assay [8], 2 µM; in assay [9], 2.71 µM. For the same compound, the TGI in [1] came out at 4.23 µM; in assay [2], 3.58 µM; in assay [3], 4.58 µM; in [10], 5.54 µM; in assay [4] it was 8.79 µM; in assay [5] it was 9.32 µM. Further, the TGI in assay [6] came to 11.5 µM; in assay [7], 3.76 µM; in assay [8], 4.59 µM; in assay [9] it was 7.24 µM.
As to `COc1cc(OC)c(/C=C/S(=O)(=O)Cc2ccc(OC)c(NCC(=O)O)c2)c(OC)c1`, the GI50 in [1] was 0.178 µM and 0.452 µM; in assay [2], 0.193 µM and 0.4 µM; in assay [3], 0.156 µM and 0.355 µM; in assay [4] it was 0.0767 µM and 0.049 µM; in assay [5], 0.119 µM and 0.0486 µM; in assay [6], 0.0687 µM and 0.0446 µM. Besides, the GI50 was 0.193 µM and 0.0553 µM in assay [7]; 0.139 µM and 0.244 µM in assay [8]. For the same compound, the TGI in [1] is above 100 µM; in assay [2] it was above 24.5 µM; in assay [4] it was above 100 µM; in assay [5] it was above 100 µM; in assay [6], above 100 µM; in assay [8] it was above 100 µM. For the same compound, in assay [9], the TGI is above 100 µM.
Consider `C[C@H](NC(=O)CCC(F)(F)F)C(=O)N[C@@H]1C(=O)N(CCO)c2ncccc2-c2ccccc21`, for which the GI50 in assay [1], in [2], in assay [3], in [4], in assay [5] and in assay [6] was above 100 µM each time. For the same compound, the GI50 in assay [7], in [8] and in assay [9] was above 100 µM each time. The TGI in [1], in assay [2], in assay [3], in assay [4], in assay [5] and in assay [6] was above 100 µM in each case. In addition, the TGI in assay [7], in assay [8] and in assay [9] was above 100 µM in each case.
As for `CC(C)C[C@H](NC(=O)[C@@H](O)[C@H](N)Cc1ccccc1)C(=O)O`, the TGI in assay [1], in assay [2], in assay [3], in [10], in assay [4] and in [5] was above 100 µM throughout. Also, the TGI in assay [6], in assay [7], in assay [8] and in assay [9] was above 100 µM throughout. In assay [2], the GI50 was above 100 µM.
In the case of `Nc1ncnc2c1ncn2Cc1ccc(C23CC4CC(CC(C4)C2)C3)c(O)c1`, the GI50 is 15.6 µM in [1]; 23.5 µM in [2]; 5.06 µM in [3]; 16.4 µM in [10]; 8.36 µM in [5]; 18.3 µM in [6]. Moreover, the GI50 is 23.4 µM in assay [7], 30.3 µM in assay [8] and 7.24 µM in [9]. Also, the TGI in assay [1] was above 100 µM; in assay [2], above 100 µM; in assay [3], above 100 µM; in assay [10] it was 37.5 µM; in assay [5] it was 96.3 µM; in assay [6], above 100 µM. Besides, the TGI was 75.1 µM in assay [7], above 100 µM in assay [8] and 50.2 µM in assay [9].
In the case of `CCCCCCN1C(=O)CN=C1Nc1ccc2cc3ccc(NC4=NCC(=O)N4CCCCCC)cc3nc2c1`, the GI50 is 1.76 µM in assay [1]; 3.46 µM in [2]; 1.96 µM in assay [3]; 1.63 µM in assay [10]; 1.91 µM in assay [4]; 2.54 µM in assay [5]. Also, the GI50 in assay [6] was 1.82 µM; in assay [7], 1.81 µM; in [8] it was 2.07 µM; in [9], 1.56 µM. The TGI in [1] stood at 3.42 µM; in assay [2] it was 17.6 µM; in assay [3], 4.16 µM; in [10] it was 3.78 µM; in [4] it was 4.93 µM; in assay [5], 9 µM. Moreover, the TGI in assay [6] worked out at 3.82 µM; in assay [7] it was 3.63 µM; in [8] it was 4.67 µM; in assay [9] it was 3.63 µM.
As for `Nc1ccc2c(c1)CN1C(=O)c3ccccc3C1=N2`, the GI50 was 34 µM in assay [1]; 15.5 µM in [3]; 47.9 µM in assay [10]; 52.4 µM in [4]; 32.2 µM in assay [6]; 5.29 µM in [7]. The GI50 was 60.6 µM in [8] and 16.8 µM in assay [9]. Besides, the TGI in assay [1] is above 125 µM; in assay [2], above 125 µM; in [3], above 125 µM; in assay [10], 110 µM; in assay [4], above 125 µM; in assay [5], above 125 µM. Also, the TGI in [6] is above 116 µM; in [7], 95.8 µM; in assay [8], 124 µM; in assay [9], above 125 µM.
Take `CCOc1cccnc1/C=N/NC(N)=S`: the GI50 was 4.01 µM in assay [1]; 6.02 µM in assay [2]; 2.42 µM in assay [3]; 3.72 µM in [4]; 3.9 µM in [5]; 3.92 µM in assay [6]. Further, the results for the GI50 in assay [7] and in assay [8] were 2.8 µM and 4.43 µM, respectively. In addition, the TGI was above 100 µM in assay [1]; above 100 µM in assay [2]; 6.16 µM in [3]; above 100 µM in assay [4]; above 100 µM in [5]; above 100 µM in assay [6]. The TGI is 9.59 µM in assay [7] and above 100 µM in [8].
On to `CC1(C)CC2(C)OC2C2(C1)N=NC(=Nc1ccccc1)O2` (configuration not stated), for which the GI50 in [1] was 2 µM; in [2] it was 2.22 µM; in [3] it was 5.26 µM; in assay [4], 2.3 µM; in [5], 11.5 µM; in assay [6] it was 13.3 µM. Moreover, the GI50 in [7] was 7.94 µM; in [8], 14.1 µM; in [9], 3.44 µM. In addition, the TGI in assay [1] came to 6.12 µM; in [2] it was 4.99 µM; in [3], 26.1 µM; in assay [4], 12.5 µM; in assay [5], 28.9 µM; in assay [6], 29.1 µM. Besides, the values for the TGI in [7], in assay [8] and in assay [9] were 20.9 µM, 28 µM and 8.31 µM, respectively.
For `COc1ccc(S(=O)(=O)NCCNc2nccc(-c3c(-c4ccccc4)nc4sccn34)n2)cc1`, the GI50 in assay [1] is 2.02 µM; in assay [2], 3.56 µM; in assay [3] it was 2.87 µM; in assay [10], 3.73 µM; in [5] it was 1.64 µM; in [6], 6.52 µM. Besides, the GI50 in assay [7] is 13.7 µM; in assay [8] it was 8.78 µM; in assay [9], 5.07 µM. The TGI is above 100 µM in [1]; above 100 µM in [2]; above 100 µM in assay [3]; 65.7 µM in assay [10]; above 100 µM in assay [5]; above 100 µM in assay [6]. For the same compound, the TGI in assay [7], in assay [8] and in [9] was above 100 µM each time.
On to `COc1ccc(N(Cc2cc(OC)c(OC)c(OC)c2)C2OC(=O)c3ccccc32)cc1` (configuration not stated), for which the GI50 in [1] is 0.69 µM; in assay [2], 0.428 µM; in [3], 0.308 µM; in assay [10], 0.349 µM; in assay [4], 0.346 µM; in [5], 0.666 µM. Also, the GI50 in [6] was 0.534 µM; in assay [7], 0.317 µM. Besides, the TGI is above 100 µM in [1]; above 100 µM in assay [2]; 2.25 µM in assay [3]; above 100 µM in assay [10]; above 100 µM in assay [4]; above 100 µM in assay [5]. The values for the TGI in [6], in [7] and in assay [9] were above 100 µM, 1.24 µM and above 100 µM, respectively.
